The source of these data is US20080167330A1, “Carbamoylsulphoximides as protein kinase inhibitors” (priority 2006, published 2008).

The target of one assay is T1, human Aurora-C (Homo sapiens, UniProt Q9UQB9).
T1 construct: GST; made in house; host or cells: transiently transfected HEK293 cells
T1 sequence (Q9UQB9 1-309): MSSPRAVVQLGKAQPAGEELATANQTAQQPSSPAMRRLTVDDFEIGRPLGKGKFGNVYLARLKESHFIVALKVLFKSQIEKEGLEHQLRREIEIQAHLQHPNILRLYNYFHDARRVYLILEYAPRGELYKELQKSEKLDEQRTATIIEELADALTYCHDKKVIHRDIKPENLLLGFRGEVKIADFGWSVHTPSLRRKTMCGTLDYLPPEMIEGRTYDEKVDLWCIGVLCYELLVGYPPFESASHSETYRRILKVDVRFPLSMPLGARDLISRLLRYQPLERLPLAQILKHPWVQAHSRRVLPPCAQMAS
The assay is described as follows: Aurora-C kinase assay (HTRF). The format is biochemical. The following applies: 10 μM ATP. The method, then: The Aurora-C inhibitory activity of the substances of this invention was measured in the Aurora-C-HTRF assay (HTRF=Homogeneous Time Resolved Fluorescence) described in the following paragraphs.
Recombinant fusion protein of GST and human Aurora-C was expressed in transiently transfected HEK293 cells and purified by affinity chromatography on glutathione-Sepharose. The substrate used for the kinase reaction was the biotinylated peptide biotin-Ttds-FMRLRRLSTKYRT (C terminus in amide form) which can be purchased for example from JERINI Peptide Technologies (Berlin). Aurora-C was incubated in the presence of various concentrations of test substances in 5 μL of assay buffer [25 mM Hepes/NaOH pH 7.4, 0.5 mM MnCl2, 2.0 mM dithiothreitol, 0.1 mM sodium orthovanadate, 10 μM adenosine triphosphate (ATP), […] substrate, 0.01% (v/v) TritonX-100 (Sigma), 0.05% (w/v) bovine serum albumin (BSA), 1% (v/v) dimethyl sulphoxide] at 22° C. for 60 min. The concentration of Aurora-C was adapted to the particular activity of the enzyme and adjusted so that the assay operated in the linear range. Typical concentrations were in the region of 0.3 nM. The reaction was stopped by adding 5 μl of a solution of HTRF detection reagents (0.2 μM streptavidin-XLent and 1.4 nM anti-phospho-(Ser/Thr)-Akt substrate-Eu-cryptate (Cis biointernational, France, product No. 61P02KAE), a Europium-cryptate-labelled phospho-(Ser/Thr)-Akt substrate antibody [product #9611B, Cell Signaling Technology, Danvers, Mass., USA]) in aqueous EDTA solution (40 mM EDTA, 400 mM KF, 0.05% (w/v) bovine serum albumin (BSA) in 25 mM HEPES/NaOH pH 7.0).
The resulting mixture was incubated at 22° C. for 1 h in order to allow formation of a complex of the biotinylated phosphorylated substrate and the detection reagents. The amount of phosphorylated substrate was then estimated by measuring the resonance energy transfer from the anti-phospho-(Ser/Thr)-Akt substrate-Eu cryptate to the streptavidin-XLent. For this purpose, the fluorescence emissions at 620 nm and 665 nm after excitation at 350 nm were measured in an HTRF measuring instrument, e.g. a Rubystar (BMG Labtechnologies, Offenburg, Germany) or a Viewlux (Perkin-Elmer). The ratio of the emissions at 665 nm and at 622 nm was taken as a measure of the amount of phosphorylated substrate. The data were normalized (enzymic reaction without inhibitor=0% inhibition, all other assay components but no enzyme=100% inhibition) and IC50 values were calculated with a 4-parameter fit using an inhouse software.
(In general: TR-FRET usually uses a lanthanide donor and a delayed reading to cut background.)

The next assay deals with T2, KDR (VEGFR2) (Homo sapiens, UniProt P35968).
T2 construct: GST; purchased ProQinase GmbH, Freiburg; host or cells: baculovirus-infected insect cells (Sf9)
The assay is described as follows: KDR kinase assay. The format is biochemical. The following applies: 8 μM ATP. On the procedure:
Recombinant KDR kinase-GST fusion proteins purified from baculovirus-infected insect cells (Sf9), were purchased from ProQinase GmbH, Freiburg. Poly(Glu4Tyr)n, which was used as kinase substrate, was purchased from Sigma.
KDR kinase was incubated in the presence of various concentrations of test substances (0 μM, and within the range 0.01-100 μM) in 40 μL of assay buffer [40 mM Tris/HCl pH 7.5, 10 mM MgCl2, 1 mM MnCl2, 1.0 mM dithiothreitol, 8 μM ATP, 0.025% PEG20000, 24 ng/μL poly(Glu4Tyr)n, 0.2 μCi/measurement point ^33P-gamma ATP, 1.25% dimethyl sulphoxide] at 22° C. for 10 min. The reaction was stopped by adding EDTA solution (250 mM, pH 7.5, 15 μl/measurement point). 15 μl of each reaction mixture were loaded onto P30 filter strips (from Wallac), and non-incorporated ^33P-ATP was removed by washing the filter strips three times in 0.5% strength phosphoric acid for 10 min each time.
After the filter strips had been dried at 70° C. for 1 hour, the filter strips were covered with scintillator strips (MeltiLex™ A, from Wallac) and baked at 90° C. for 1 hour. The amount of incorporated ^33P (substrate phosphorylation) was determined by scintillation measurement in a gamma radiation counter (Wallac).
The measured data were normalized to 0% inhibition (enzyme reaction without inhibitor) and 100% inhibition (all assay components except enzyme). The IC50 values were determined by means of a 4-parameter fit using the company's own software.

Assay [1] has as its system human MCF7 breast tumour cells. The assay is described as follows: MCF7 proliferation assay. The following applies: MCF7, 96 h, 4 days incubation, crystal violet staining. The format is cell-based. On the procedure: Cultivated human MCF7 breast tumour cells (ATCC HTB-22) were plated out in a density of 5000 cells/measurement point in 200 μl of growth medium (RPMI1640, 10% foetal calf serum, 2 mU/mL insulin, 0.1 nM oestradiol) in a 96-well multititre plate. After 24 hours, the cells from a plate (zero plate) were stained with crystal violet (see below), while the medium in the other plates was replaced by fresh culture medium (200 μl) to which the test substances had been added in various concentrations (0 μM, and in the range 0.01-30 μM; the final concentration of the solvent dimethyl sulphoxide was 0.5%). The cells were incubated in the presence of the test substances for 4 days. The cell proliferation was determined by staining the cells with crystal violet: the cells were fixed by adding 20 μl/measurement point of an 11% strength glutaraldehyde solution at room temperature for 15 min. After the fixed cells had been washed three times with water, the plates were dried at room temperature. The cells were stained by adding 100 μl/measurement point of a 0.1% strength crystal violet solution (pH adjusted to pH 3 by adding acetic acid). After the stained cells had been washed three times with water, the plates were dried at room temperature. The dye was dissolved by adding 100 μl/measurement point of a 10% strength acetic acid solution, and the extinction was determined by photometry at a wavelength of 595 nm. The percentage change in cell growth was calculated by normalizing the measurements to the extinctions of the zero point plate (=0%) and the extinction of the untreated (0 μM) cells (=100%). The IC50 values were determined by means of a 4-parameter fit using the company's own software.

pIC50: −log10 of the molar value.

T2 sequence (P35968 807-1356 limits assumed): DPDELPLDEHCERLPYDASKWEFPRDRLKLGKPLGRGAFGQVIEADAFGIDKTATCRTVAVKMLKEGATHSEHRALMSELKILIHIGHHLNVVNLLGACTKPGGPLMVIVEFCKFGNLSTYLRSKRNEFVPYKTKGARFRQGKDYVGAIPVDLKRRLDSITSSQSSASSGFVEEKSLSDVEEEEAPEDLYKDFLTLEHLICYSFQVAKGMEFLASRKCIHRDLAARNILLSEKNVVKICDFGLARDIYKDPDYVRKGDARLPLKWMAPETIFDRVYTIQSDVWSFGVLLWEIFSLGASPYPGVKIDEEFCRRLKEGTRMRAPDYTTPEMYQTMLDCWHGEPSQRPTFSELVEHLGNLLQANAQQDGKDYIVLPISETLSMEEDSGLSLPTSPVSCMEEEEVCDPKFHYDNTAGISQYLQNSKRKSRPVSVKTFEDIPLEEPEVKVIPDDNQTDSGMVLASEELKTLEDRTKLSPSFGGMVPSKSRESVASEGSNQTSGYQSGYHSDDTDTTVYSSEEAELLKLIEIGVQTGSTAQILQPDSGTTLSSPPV

For `C[C@@H](Nc1nc(Nc2cccc(NC(=O)N=S(C)(C)=O)c2)ncc1Br)C(C)(C)O` [Example 1, N-({3-[(5-Bromo-4-{[(R)-2-hydroxy-1,2-dimethylpropyl]amino}pyrimidin-2-yl)amino]phenyl}carbamoyl)-S,S-dimethylsulphoximide], the negative-log IC50 (pIC50) at human Aurora-C was 6.80; at KDR (VEGFR2) it was 6.77; in assay [1] it was 6.40.

On to `C[C@@H](Nc1nc(Nc2ccc(NC(=O)N=S(C)(C)=O)cc2)ncc1Br)C(C)(C)O` [Example 2, N-({4-[(5-Bromo-4-{[(R)-2-hydroxy-1,2-dimethylpropyl]amino}pyrimidin-2-yl)-amino]phenyl}carbamoyl)-S,S-dimethylsulphoximide], for which the results for the pIC50 (against human Aurora-C; at KDR (VEGFR2); in assay [1]) were 6.40, 6.64 and 6.30, respectively.

Regarding `C[C@@H](O)[C@@H](C)Nc1nc(Nc2ccc(NC(=O)N=S(C)(C)=O)cc2)ncc1Br` [Example 3, N-({4-[(5-Bromo-4-{[(1R,2R)-2-hydroxy-1-methylpropyl]amino}pyrimidin-2-yl)amino]phenyl}carbamoyl)-S,S-dimethylsulphoximide], the results for the negative-log IC50 (pIC50) (against human Aurora-C; at KDR (VEGFR2); in assay [1]) were 6.55, 6.92 and 6.80, respectively.

For the compound `C[C@@H](O)[C@@H](C)Oc1nc(Nc2ccc(NC(=O)N=S(C)(C)=O)cc2)ncc1Br` [Example 4, N-({4-[(5-Bromo-4-{[(1R,2R)-2-hydroxy-1-methylpropyl]oxy}pyrimidin-2-yl)amino]phenyl}carbamoyl)-S,S-dimethylsulphoximide], the values for the negative logarithm of the IC50 (pIC50) (against human Aurora-C; on KDR (VEGFR2); in assay [1]) were 6.38, 6.80 and 6.85, respectively.

On to `C[C@@H](O)[C@@H](C)Nc1nc(Nc2cccc(NC(=O)N=S(C)(C)=O)c2)ncc1Br` [Example 5, N-({3-[(5-Bromo-4-{[(1R,2R)-2-hydroxy-1-methylpropyl]amino}pyrimidin-2-yl)amino]phenyl}carbamoyl)-S,S-dimethylsulphoximide], for which the pIC50 at human Aurora-C was 7.27; against KDR (VEGFR2), 7.20; in assay [1], 6.80.

Consider `C[C@@H](O)[C@@H](C)Oc1nc(Nc2cccc(NC(=O)N=S(C)(C)=O)c2)ncc1Br` [Example 6, N-({3-[(5-Bromo-4-{[(1R,2R)-2-hydroxy-1-methylpropyl]oxy}pyrimidin-2-yl)amino]phenyl}carbamoyl)-S,S-dimethylsulphoximide], for which the negative logarithm of the IC50 (pIC50) against human Aurora-C is 7.14; against KDR (VEGFR2), 6.89; in assay [1], 6.82.

Take `C[C@@H](O)[C@@H](C)Nc1nc(Nc2ccc(F)c(NC(=O)N=S(C)(C)=O)c2)ncc1Br` [Example 7, N-({5-[(5-Bromo-4-{[(1R,2R)-2-hydroxy-1-methylpropyl]amino}pyrimidin-2-yl)amino]-2-fluorophenyl}carbamoyl)-S,S-dimethylsulphoximide]: the figures for the pIC50 (on human Aurora-C; at KDR (VEGFR2); in assay [1]) were 6.43, 6.52 and 6.30, respectively.

`Cc1ccc(Nc2ncc(Br)c(N[C@H](C)[C@@H](C)O)n2)cc1NC(=O)N=S(C)(C)=O` [Example 8, N-({5-[(5-Bromo-4-{[(1R,2R)-2-hydroxy-1-methylpropyl]amino}pyrimidin-2-yl)amino]-2-methylphenyl}carbamoyl)-S,S-dimethylsulphoximide]: the pIC50 is 6.09 against human Aurora-C, 6.89 at KDR (VEGFR2) and 6.15 in assay [1].

As for `COc1ccc(Nc2ncc(Br)c(N[C@H](C)[C@@H](C)O)n2)cc1NC(=O)N=S(C)(C)=O` [Example 10, N-({5-[(5-Bromo-4-{[(1R,2R)-2-hydroxy-1-methylpropyl]amino}pyrimidin-2-yl)amino]-2-methoxyphenyl}carbamoyl)-S,S-dimethylsulphoximide], the figures for the pIC50 (at human Aurora-C; against KDR (VEGFR2); in assay [1]) were 6.39, 6.49 and 6.19, respectively.

Consider `COc1cc(Nc2ncc(Br)c(N[C@H](C)[C@@H](C)O)n2)ccc1NC(=O)N=S(C)(C)=O` [Example 11, N-({4-[(5-Bromo-4{[(1R,2R)-2-hydroxy-1-methylpropyl]amino}pyrimidin-2-yl)amino]-2-methoxyphenyl}carbamoyl)-S,S-dimethylsulphoximide], for which the figures for the pIC50 (on human Aurora-C; against KDR (VEGFR2); in assay [1]) were 6.37, 7.02 and 6.00, respectively.

As to `C[C@@H](O)[C@@H](C)Nc1nc(Nc2ccc(Cl)c(NC(=O)N=S(C)(C)=O)c2)ncc1Br` [Example 12, N-({5-[(5-Bromo-4-{[(1R,2R)-2-hydroxy-1-methylpropyl]amino}pyrimidin-2-yl)amino]-2-chlorophenyl}carbamoyl)-S,S-dimethylsulphoximide], the negative logarithm of the IC50 (pIC50) against human Aurora-C is 5.89; against KDR (VEGFR2) it was 6.46; in assay [1] it was 6.07.

As to `C[C@@H](O)[C@@H](C)Nc1nc(Nc2ccc(NC(=O)N=S(C)(C)=O)cc2)ncc1C(F)(F)F` [Example 15], the pIC50 was 6.82 at human Aurora-C, 5.96 against KDR (VEGFR2) and 6.28 in assay [1].

Regarding `CS(C)(=O)=NC(=O)Nc1ccc(Nc2ncc(Br)c(Nc3ccc4[nH]cnc4c3)n2)cc1` [Example 16, N-[(4-{[4-(1H-Benzimidazol-5-ylamino)-5-bromopyrimidin-2-yl]amino}phenyl)-carbamoyl]-S,S-dimethylsulphoximide], the negative-log IC50 (pIC50) was 6.40 at human Aurora-C, 7.19 against KDR (VEGFR2) and 5.68 in assay [1].

With `C[C@@H](O)[C@@H](C)Nc1nc(Nc2cccc(C(=O)N=S(C)(C)=O)c2)ncc1Br` [Example 17, N-{3-[(5-Bromo-4-{[(1R,2R)-2-hydroxy-1-methylpropyl]amino}pyrimidin-2-yl)amino]benzoyl}-S,S-dimethylsulphoximide], the pIC50 is 5.70 on human Aurora-C, 6.48 at KDR (VEGFR2) and 6.42 in assay [1].

Broadly, the pIC50 is the IC50 on a negative log10 scale, so that one unit is a factor of ten. Read a low pIC50 as a large IC50.
